Data published in ChEMBL document CHEMBL3124888, “Inhibiting the HIV integration process: past, present, and the future” (J Med Chem, 2014).
≈ marks a conversion by molar mass, not a printed value.

Assays:
[1] = tested on: Human immunodeficiency virus 1; assay: Antiviral activity against HIV-1 harboring integrase R263K mutant relative to wild type HIV1; format: functional
[2] = tested on: Human immunodeficiency virus 1; assay: Antiviral activity against HIV-1 harboring integrase T66R mutant relative to wild type HIV1; format: functional
[3] = tested on: Human immunodeficiency virus 1; assay: Antiviral activity against HIV-1 harboring integrase E138K/Q148K double mutant relative to wild type HIV1; format: functional
[4] = tested on: Human immunodeficiency virus 1; assay: Antiviral activity against HIV-1 harboring integrase E92Q mutant relative to wild type HIV1; format: functional
[5] = tested on: Human immunodeficiency virus 1; assay: Antiviral activity against HIV-1 harboring integrase Y143R mutant relative to wild type HIV1; format: functional
[6] = tested on: Human immunodeficiency virus 1; assay: Antiviral activity against HIV-1 harboring integrase G140S mutant relative to wild type HIV1; format: functional
[7] = tested on: Human immunodeficiency virus 1; assay: Antiviral activity against HIV-1 harboring integrase G140S/Q148K double mutant relative to wild type HIV1; format: functional
[8] = tested on: Human immunodeficiency virus 1; assay: Antiviral activity against HIV-1 harboring integrase Q148H mutant relative to wild type HIV1; format: functional
[9] = tested on: Human immunodeficiency virus 1; assay: Antiviral activity against HIV-1 harboring integrase T66I/R263K double mutant relative to wild type HIV1; format: functional
[10] = tested on: Human immunodeficiency virus 1; assay: Antiviral activity against HIV1 3B infected in human MT4 cells assessed as inhibition of viral infection after 5 days by MTT assay in presence of human serum; format: functional; conditions: Human immunodeficiency virus 1, 3B, MT4, 120 h
[11] = tested on: Human immunodeficiency virus 1; assay: Antiviral activity against HIV-1 harboring integrase T97A/Y143R double mutant relative to wild type HIV1; format: functional
[12] = tested on: Human immunodeficiency virus 1; assay: Antiviral activity against HIV-1 harboring integrase E138K mutant relative to wild type HIV1; format: functional
[13] = Oral bioavailability in rat; format: ADME, organism-based; conditions: in vivo
[14] = tested on: Human immunodeficiency virus 1; assay: Antiviral activity against HIV-1 harboring integrase E138K/Q148H double mutant relative to wild type HIV1; format: functional
[15] = tested on: Human immunodeficiency virus 1; assay: Antiviral activity against HIV-1 harboring integrase N155H mutant relative to wild type HIV1; format: functional
[16] = tested on: Human immunodeficiency virus 1; assay: Antiviral activity against HIV-1 harboring integrase G140S/Q148H double mutant relative to wild type HIV1; format: functional
[17] = tested on: Human immunodeficiency virus 1; assay: Antiviral activity against HIV-1 harboring integrase Y143C mutant relative to wild type HIV1; format: functional
[18] = Tmax in rat; format: ADME, organism-based; conditions: in vivo
[19] = tested on: Human immunodeficiency virus 1; assay: Antiviral activity against HIV-1 harboring integrase Q148R mutant relative to wild type HIV1; format: functional
[20] = tested on: Human immunodeficiency virus 1; assay: Antiviral activity against HIV-1 harboring integrase G118R mutant relative to wild type HIV1; format: functional
[21] = tested on: Human immunodeficiency virus 1; assay: Antiviral activity against HIV-1 harboring integrase T97A mutant relative to wild type HIV1; format: functional
[22] = tested on: Human immunodeficiency virus 1; assay: Antiviral activity against HIV-1 harboring integrase E92Q/N155H double mutant relative to wild type HIV1; format: functional
[23] = tested on: Human immunodeficiency virus 1; assay: Antiviral activity against HIV-1 harboring integrase Q148K mutant relative to wild type HIV1; format: functional
[24] = tested on: Human immunodeficiency virus 1; assay: Antiviral activity against HIV-1 harboring integrase T97A/Y143C double mutant relative to wild type HIV1; format: functional
[25] = tested on: Human immunodeficiency virus 1; assay: Antiviral activity against HIV-1 harboring integrase T66I mutant relative to wild type HIV1; format: functional
[26] = Tmax in dog; format: ADME, organism-based, Canis lupus familiaris; conditions: in vivo
[27] = Inhibition of HIV1 integrase/LEDGF-75 (unknown origin) interaction
[28] = biological target: T1, Human immunodeficiency virus type 1 integrase (Human immunodeficiency virus 1, UniProt Q7ZJM1); assay: Inhibition of HIV-1 integrase 3'-end processing activity
[29] = biological target: T1, Human immunodeficiency virus type 1 integrase; assay: Inhibition of HIV1 integrase strand transfer activity
[30] = Selectivity index, ratio of CC50 for human MT4 cells to EC50 for HIV-1 infected in human MT4 cells; format: toxicity, cell-based; conditions: read-out: Ratio CC50/EC50
[31] = tested on: Human immunodeficiency virus 1; assay: Antiviral activity against HIV-1 infected in human MT4 cells assessed as reduction of virus-induced cytopathic effect by MTT assay; format: functional, organism-based; conditions: Human immunodeficiency virus 1, MT4
[32] = tested on: Human immunodeficiency virus 1; assay: Antiviral activity against HIV-1 NL4-3 infected in human HuT78 cells assessed as inhibition of viral p24 production incubated for 4 days followed by compound washout measured after 48 hrs; format: functional, organism-based; conditions: Human immunodeficiency virus 1, NL4-3, HuT78
[33] = Inhibition of HIV-1 His6-tagged integrase/Flag-tagged LEDGF-75 (unknown origin) interaction by AlphaScreen assay
[34] = biological target: T1, Human immunodeficiency virus type 1 integrase; assay: Inhibition of HIV-1 integrase strand transfer activity preincubated for 30 mins followed by 5'-end 32P-labeled linear double-stranded oligonucleotide addition
[35] = biological target: T1, Human immunodeficiency virus type 1 integrase; assay: Inhibition of HIV-1 integrase 3'-end processing activity preincubated for 30 mins followed by 5'-end 32P-labeled linear double-stranded oligonucleotide addition
[36] = tested on: Human immunodeficiency virus
[37] = tested on: Human immunodeficiency virus 1; assay: Antiviral activity against HIV-1 harboring integrase E92V mutant relative to wild type HIV1; format: functional
[38] = tested on: Human immunodeficiency virus 1; assay: Antiviral activity against HIV-1 harboring integrase G140C mutant relative to wild type HIV1; format: functional
[39] = tested on: Human immunodeficiency virus 1; assay: Antiviral activity against HIV-1 by cell-based assay; format: functional, organism-based
[40] = Inhibition of HIV-1 recombinant His6-tagged integrase/human LEDGF-75 interaction expressed in Escherichia coli BL21(DE3) by SDS PAGE analysis
[41] = biological target: T1, Human immunodeficiency virus type 1 integrase; assay: Inhibition of HIV-1 integrase binding to viral DNA by SPR-based competitive assay
[42] = tested on: Human immunodeficiency virus 1; assay: Antiviral activity against HIV-1 3B infected in human C8166 cells assessed as inhibition of viral replication by MTT assay; format: functional, organism-based; conditions: Human immunodeficiency virus 1, 3B

COc1cc2c(cc1Cc1cccc(Cl)c1F)c(=O)c(C(=O)O)cn2[C@H](CO)C(C)C
fold change (FC) [1]: 2
fold change (FC) [2]: 50
fold change (FC) [3]: >100
fold change (FC) [4]: 20
fold change (FC) [5]: <2
fold change (FC) [6]: 2
fold change (FC) [7]: >100
fold change (FC) [8]: 2
fold change (FC) [9]: >100
EC90 [10]: 0.0017 µM
fold change (FC) [11]: <2
fold change (FC) [12]: 2
bioavailability [13]: 30%
fold change (FC) [14]: 10
fold change (FC) [15]: 20
fold change (FC) [16]: >100
fold change (FC) [17]: <2
Tmax [18]: 30 min
fold change (FC) [19]: 50
fold change (FC) [20]: <2
fold change (FC) [21]: 2
fold change (FC) [22]: >100
fold change (FC) [23]: 50
fold change (FC) [24]: <2
fold change (FC) [25]: >10
Tmax [26]: 30 min

CC(C)c1c(C(=O)Nc2ccccc2)c(-c2ccccc2)c(-c2ccc(F)cc2)n1CC[C@@H](O)C[C@@H](O)CC(=O)O [ATORVASTATIN]
IC50 [27]: 8.9 µM

COC(=O)[C@H](COC(=O)/C=C/c1ccc(OC(C)=O)c(OC(C)=O)c1)NC(=O)/C=C/c1ccc(OC(C)=O)c(OC(C)=O)c1
IC50 [28]: 3 µM
IC50 [29]: 3 µM

Cc1ccc(-c2c(C(OC(C)(C)C)C(=O)O)cnc3sc(C)cc23)cc1 (configuration not stated)
selectivity ratio [30]: 1390
EC50 [31]: 0.069 µM

CCCCc1ncc(/C=C(\Cc2cccs2)C(=O)O)n1Cc1ccc(C(=O)O)cc1 [EPROSARTAN]
IC50 [27]: 36.9 µM

C=CCN(Cc1ccccc1C(=O)NC(c1ccc(OC)cc1)c1ccc(OC)cc1)Cc1ccc2c(c1C(=O)O)OCO2
EC50 [32]: 29 µM
IC50 [33]: 8.1 µM

O=C(c1ccccc1)c1ccc(C(c2c(O)c3ccccc3oc2=O)c2c(O)c3ccccc3oc2=O)cc1
IC50 [34]: 18 µM
IC50 [35]: 27 µM

C[C@@H]1CCO[C@H]2Cn3cc(C(=O)NCc4ccc(F)cc4F)c(=O)c(O)c3C(=O)N12 [DOLUTEGRAVIR]
fold change (FC) [1]: 10
fold change (FC) [2]: <2
fold change (FC) [3]: >100
fold change (FC) [4]: 2
fold change (FC) [5]: <2
fold change (FC) [6]: <2
fold change (FC) [7]: <2
fold change (FC) [8]: <2
fold change (FC) [11]: <2
fold change (FC) [12]: 2
fold change (FC) [14]: 2
fold change (FC) [15]: <2
fold change (FC) [16]: <2
fold change (FC) [17]: <2
fold change (FC) [19]: <2
fold change (FC) [20]: 2
fold change (FC) [21]: <2
fold change (FC) [22]: 2
fold change (FC) [23]: <2
fold change (FC) [24]: <2

CCN1C[C@H](C)n2c(c(O)c3c(=O)n(Cc4ccc(F)c(Cl)c4)nc(C(=O)NC)c32)C1=O
fold change (FC) [1]: <2
fold change (FC) [2]: <2
fold change (FC) [4]: <2
T1/2 [36]: 1920 min
fold change (FC) [5]: 2
fold change (FC) [6]: 2
fold change (FC) [7]: 2
fold change (FC) [8]: 2
fold change (FC) [12]: 2
fold change (FC) [15]: 2
fold change (FC) [16]: 10
fold change (FC) [17]: 2
fold change (FC) [19]: 2
fold change (FC) [20]: 2
fold change (FC) [22]: 2
fold change (FC) [23]: <2

Cc1nnc(C(=O)NC(C)(C)c2nc(C(=O)NCc3ccc(F)cc3)c(O)c(=O)n2C)o1
fold change (FC) [1]: <2
fold change (FC) [2]: 2
fold change (FC) [3]: 10
fold change (FC) [4]: 2
T1/2 [36]: > 438 min
fold change (FC) [5]: 20
fold change (FC) [6]: 2
fold change (FC) [7]: >100
fold change (FC) [8]: 10
fold change (FC) [9]: <2
fold change (FC) [11]: >100
fold change (FC) [37]: >5
fold change (FC) [12]: 2
fold change (FC) [14]: <2
fold change (FC) [15]: 20
fold change (FC) [16]: >100
fold change (FC) [17]: 2
fold change (FC) [19]: 20
fold change (FC) [20]: 2
fold change (FC) [21]: 2
fold change (FC) [22]: 50
fold change (FC) [23]: 50
fold change (FC) [24]: >100
fold change (FC) [38]: >5

CCOc1cc(/C=C2\SC(=O)N(CC(=O)c3ccccc3)C2=O)c(Br)cc1OCc1ccc(C(=O)O)cc1
EC50 [39]: 23.8 µg/mL

CCCC(C(=O)O)c1c(C)nc2ccc(Cl)cc2c1-c1ccccc1 (configuration not stated)
IC50 [40]: 1.37 µM
EC50 [39]: 2.35 µM

C[C@@](Cc1ccc(O)c(O)c1)(NN)C(=O)O [CARBIDOPA]
IC50 [27]: 6.54 µM

O=C(CN1CCCC1)Nc1ccc(Cc2ccc(NC(=O)CN3CCCC3)cc2)cc1
IC50 [41]: 7.29 µM
EC50 [42]: 17.1 µg/mL (≈ 40.5 µM)
